Laboratory results: patent US20230233569A1 (Revolution Medicines, Inc., priority 2020, published 2023)
“And” between values parts separate entries of the source, which are not always exact repeats. Equal entries are not always repeated. Where two headings read alike, the source gives them in different places.

Columns and labels:
KRAS Q61H = KRAS Q61H (Homo sapiens, UniProt P01116+P62937, Q61H); test: Disruption of BRAF RBD interaction with Ras (FRET / MOA assay, with Cyclophilin A); assay type: biochemical; details: KRAS Q61H; read-out: KRAS Q61H FRET data IC50
Sequence of KRAS Q61H (P01116 1-169 isoform P01116-2 Q61H limits assumed): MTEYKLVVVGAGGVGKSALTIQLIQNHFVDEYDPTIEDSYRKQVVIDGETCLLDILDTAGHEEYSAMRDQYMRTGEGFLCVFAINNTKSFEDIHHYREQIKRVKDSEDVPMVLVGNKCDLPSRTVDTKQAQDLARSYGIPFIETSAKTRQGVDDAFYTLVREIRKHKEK
Sequence of KRAS Q61H (P62937 whole entry): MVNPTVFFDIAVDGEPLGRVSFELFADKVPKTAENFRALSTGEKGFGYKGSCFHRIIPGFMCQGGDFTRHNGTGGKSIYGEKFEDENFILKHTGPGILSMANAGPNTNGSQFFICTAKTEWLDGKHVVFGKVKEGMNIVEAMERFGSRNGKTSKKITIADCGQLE
Method in brief: (§1)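 TR-FRET in 25 mM HEPES pH 7.3, 100 mM NaCl, 5 mM MgCl2, 0.1% BSA: 25 μM Cyclophilin A, 12.5 nM His6-Ras-GMPPNP, 50 nM GST-BRAF RBD with compound (10-point 3-fold series from 30 μM), 3 h at 25° C. Anti-His Eu/anti-GST APC added, 1.5 h more; IC50 from decreased FRET ratio versus DMSO.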

NRAS Q61K = NRAS Q61K (Homo sapiens, UniProt P01111+P62937, Q61K); test: as above; assay type: biochemical; details: NRAS Q61K; read-out: NRAS Q61K FRET data IC50
Sequence of NRAS Q61K (P01111 whole entry Q61K): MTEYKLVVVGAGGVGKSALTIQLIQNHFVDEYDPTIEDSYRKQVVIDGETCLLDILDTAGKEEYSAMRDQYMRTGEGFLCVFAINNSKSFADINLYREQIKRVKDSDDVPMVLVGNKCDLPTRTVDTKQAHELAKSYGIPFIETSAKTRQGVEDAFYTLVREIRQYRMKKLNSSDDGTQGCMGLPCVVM
Sequence of NRAS Q61K (P62937 whole entry): as the sequence (P62937 whole entry) above
Method in brief: as §1

NRAS Q61R = NRAS Q61R (Homo sapiens, UniProt P01111+P62937, Q61R); test: as above; assay type: biochemical; details: NRAS Q61R; read-out: NRAS Q61R FRET data IC50
Sequence of NRAS Q61R (P01111 whole entry Q61R): as the sequence (P01111 whole entry Q61K) above, with K61R counted along it
Sequence of NRAS Q61R (P62937 whole entry): as the sequence (P62937 whole entry) above
Method in brief: as §1

NRAS WT = NRAS WT (Homo sapiens, UniProt P01111+P62937); test: as above; assay type: biochemical; details: NRAS WT; read-out: NRAS WT FRET data IC50
Sequence of NRAS WT (P01111 whole entry): as the sequence (P01111 whole entry Q61K) above, with K61Q counted along it
Sequence of NRAS WT (P62937 whole entry): as the sequence (P62937 whole entry) above
Method in brief: as §1

NCI-H358 (K-Ras G12C) = test: CellTiter-Glo cell viability assay, 5-day treatment; assay type: cell-based; details: Homo sapiens
Method in brief: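 Seeded cells received test compound by direct dispensing. On day 5 the plates sat at room temperature approximately 30 minutes, then luminescence was measured. Data were normalized to DMSO and curve-fitted with four parameters.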

KRAS G12C = KRAS G12C (Homo sapiens, UniProt P01116+P62937, G12C); test: Disruption of BRAF RBD interaction with Ras (FRET / MOA assay, with Cyclophilin A); assay type: biochemical
Sequence of KRAS G12C (P01116 1-169 isoform P01116-2 G12C): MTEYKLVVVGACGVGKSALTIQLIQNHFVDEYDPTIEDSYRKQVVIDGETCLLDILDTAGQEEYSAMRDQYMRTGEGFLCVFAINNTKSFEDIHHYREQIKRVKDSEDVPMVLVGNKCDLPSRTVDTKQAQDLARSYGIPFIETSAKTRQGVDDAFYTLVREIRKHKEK
Sequence of KRAS G12C (P62937 whole entry): as the sequence (P62937 whole entry) above
Method in brief: (§2)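 First, compounds at a ten-point threefold dilution series (highest final concentration 30 μM) were incubated with nucleotide-loaded K-Ras, Cyclophilin A and BRAF RBD for 3 h at 25 °C. Next, detection antibodies were added for 1.5 h. Finally, IC50 was calculated from TR-FRET ratio decreases against DMSO controls.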

KRAS G12D = KRAS G12D (Homo sapiens, UniProt P01116+P62937, G12D); test: as above; assay type: biochemical
Sequence of KRAS G12D (P01116 1-169 isoform P01116-2 G12D limits assumed): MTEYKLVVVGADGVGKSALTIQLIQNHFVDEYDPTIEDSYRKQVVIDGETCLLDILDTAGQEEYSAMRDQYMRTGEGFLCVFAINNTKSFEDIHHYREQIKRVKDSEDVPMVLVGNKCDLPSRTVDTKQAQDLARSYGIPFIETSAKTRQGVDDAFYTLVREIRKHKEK
Sequence of KRAS G12D (P62937 whole entry): as the sequence (P62937 whole entry) above
Method in brief: as §2

KRAS G12S = KRAS G12S (Homo sapiens, UniProt P01116+P62937, G12S); test: as above; assay type: biochemical
Sequence of KRAS G12S (P01116 1-169 isoform P01116-2 G12S limits assumed): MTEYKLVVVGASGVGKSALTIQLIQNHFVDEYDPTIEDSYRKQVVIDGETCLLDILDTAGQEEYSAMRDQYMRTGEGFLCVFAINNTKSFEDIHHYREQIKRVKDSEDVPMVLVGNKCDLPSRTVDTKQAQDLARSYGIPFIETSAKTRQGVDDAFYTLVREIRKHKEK
Sequence of KRAS G12S (P62937 whole entry): as the sequence (P62937 whole entry) above
Method in brief: as §2

KRAS G12V = KRAS G12V (Homo sapiens, UniProt P01116+P62937, G12V); test: as above; assay type: biochemical
Sequence of KRAS G12V (P01116 1-169 isoform P01116-2 G12V limits assumed): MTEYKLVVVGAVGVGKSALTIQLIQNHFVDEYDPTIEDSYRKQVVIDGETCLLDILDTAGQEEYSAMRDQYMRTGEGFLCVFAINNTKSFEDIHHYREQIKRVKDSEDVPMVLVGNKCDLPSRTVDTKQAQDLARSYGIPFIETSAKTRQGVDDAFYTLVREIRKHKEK
Sequence of KRAS G12V (P62937 whole entry): as the sequence (P62937 whole entry) above
Method in brief: as §2

KRAS G13C = KRAS G13C (Homo sapiens, UniProt P01116+P62937, G13C); test: as above; assay type: biochemical
Sequence of KRAS G13C (P01116 1-169 isoform P01116-2 G13C): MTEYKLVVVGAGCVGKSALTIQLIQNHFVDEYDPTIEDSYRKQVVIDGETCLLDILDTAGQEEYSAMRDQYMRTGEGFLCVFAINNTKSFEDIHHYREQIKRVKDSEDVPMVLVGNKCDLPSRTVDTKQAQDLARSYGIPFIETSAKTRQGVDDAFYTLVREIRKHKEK
Sequence of KRAS G13C (P62937 whole entry): as the sequence (P62937 whole entry) above
Method in brief: as §2

KRAS G13D = KRAS G13D (Homo sapiens, UniProt P01116+P62937, G13D); test: as above; assay type: biochemical
Sequence of KRAS G13D (P01116 1-169 isoform P01116-2 G13D limits assumed): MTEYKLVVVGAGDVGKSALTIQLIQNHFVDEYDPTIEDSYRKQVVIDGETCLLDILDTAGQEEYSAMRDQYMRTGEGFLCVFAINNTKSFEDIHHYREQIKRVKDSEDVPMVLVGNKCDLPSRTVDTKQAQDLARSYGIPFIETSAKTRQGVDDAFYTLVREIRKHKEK
Sequence of KRAS G13D (P62937 whole entry): as the sequence (P62937 whole entry) above
Method in brief: as §2

KRAS WT = KRAS WT (Homo sapiens, UniProt P01116+P62937); test: as above; assay type: biochemical; details: KRAS WT; read-out: KRAS WT FRET data IC50
Sequence of KRAS WT (P01116 1-169 isoform P01116-2 limits assumed): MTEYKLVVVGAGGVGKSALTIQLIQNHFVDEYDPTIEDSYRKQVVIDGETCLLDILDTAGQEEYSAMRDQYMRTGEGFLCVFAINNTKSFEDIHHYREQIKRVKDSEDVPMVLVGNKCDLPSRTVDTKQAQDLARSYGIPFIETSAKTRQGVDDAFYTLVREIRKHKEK
Sequence of KRAS WT (P62937 whole entry): as the sequence (P62937 whole entry) above
Method in brief: as §2

NRAS G12C = NRAS G12C (Homo sapiens, UniProt P01111+P62937, G12C); test: as above; assay type: biochemical
Sequence of NRAS G12C (P01111 whole entry G12C): as the sequence (P01111 whole entry Q61K) above, with G12C, K61Q counted along it
Sequence of NRAS G12C (P62937 whole entry): as the sequence (P62937 whole entry) above

[1] = NCI-H358, 120 h, 5-day treatment, read-out: H358 Cell Viability assay data (K-Ras G12C, IC50)
[2] = read-out: KRAS G12C FRET data, IC50
[3] = read-out: KRAS G12D FRET data, IC50
[4] = read-out: KRAS G12S FRET data, IC50
[5] = KRAS G12V, read-out: KRAS G12V FRET data IC50
[6] = read-out: KRAS G13C FRET data, IC50
[7] = KRAS G13D, read-out: KRAS G13D FRET data IC50
[8] = NRAS G12C, read-out: NRAS G12C FRET data IC50
[9] = NCI-H358, H358, K-Ras G12C, read-out: Additional H358 Cell Viability assay data (K-Ras G12C, IC50)
[10] = KRAS G12C, read-out: KRAS G12C FRET data IC50
[11] = KRAS G13C, read-out: KRAS G13C FRET data IC50

SMILES	IC50 (KRAS Q61H)	IC50 (NRAS Q61K)	IC50 (NRAS Q61R)	IC50 (NRAS WT)	IC50 (KRAS G12D; [3])	IC50 (KRAS G12S; [4])	IC50 (KRAS G12V; [5])	IC50 (KRAS G13D; [7])	IC50 (KRAS WT)	IC50 (NRAS G12C; [8])	further results
CCn1c(-c2cccnc2[C@H](C)OC)c2c3cc(ccc31)-c1csc(n1)C[C@H](NC(=O)[C@H](C(C)C)N(C)C(=O)N1[C@H](C)COC[C@H]1C)C(=O)N1CCC[C@H](N1)C(=O)OCC(C)(C)C2 (atropisomer, axis not shown) [Example A275]	< 10 nM	< 10 nM	10 to 100 nM	10 to 100 nM							
CCn1c(-c2cccnc2[C@H](C)OC)c2c3cc(ccc31)-c1csc(n1)C[C@H](NC(=O)[C@H](C(C)C)N(C)C(=O)N1CC([C@@H](C)OC)C1)C(=O)N1CCC[C@H](N1)C(=O)OCC(C)(C)C2 (atropisomer, axis not shown) [Example A278]		10 to 100 nM	10 to 100 nM	10 to 100 nM							IC50 (NCI-H358 (K-Ras G12C); [1]): < 10 nM
CCn1c(-c2cc(N3CCN(C)CC3)cnc2[C@H](C)OC)c2c3cc(ccc31)-c1csc(n1)C[C@H](NC(C)=O)C(=O)N1CCC[C@H](N1)C(=O)OCC(C)(C)C2 (atropisomer, axis not shown) [Example A340]	> 10000 nM	> 10000 nM	> 10000 nM	> 10000 nM	> 10000 nM	> 10000 nM	> 10000 nM	> 10000 nM	> 10000 nM	> 10000 nM	IC50 (KRAS G12C; [2]): > 10000 nM; IC50 (KRAS G13C; [6]): > 10000 nM
CCn1c(-c2cccnc2[C@H](C)OC)c2c3cc(ccc31)-c1csc(n1)C[C@H](NC(=O)[C@H](C(C)C)N(C)C(=O)N1CC(OC)C1)C(=O)N1CCC[C@H](N1)C(=O)OCC(C)(C)C2 (racemic) [Example A205]	10 to 100 nM	10 to 100 nM	100 to 1000 nM	100 to 1000 nM							IC50 (NCI-H358 (K-Ras G12C); [1]): < 10 nM
C=CC(=O)N1CC[C@H](C(=O)N(C)[C@H](C(=O)N[C@H]2C[C@H]3CN(CCO3)c3ccc4c(c3)c(c(-c3cccnc3[C@H](C)OC)n4CC)CC(C)(C)COC(=O)[C@@H]3CCCN(N3)C2=O)C(C)C)C1 (racemic) [Example A507]	> 10000 nM	> 10000 nM	> 10000 nM								IC50 (NCI-H358 (K-Ras G12C); [9]): 100 to 1000 nM; IC50 (KRAS G12C; KRAS G12C FRET data IC50, KRAS G12C): 100 to 1000 nM; IC50 (KRAS G12D; KRAS G12D FRET data, IC50): > 10000 nM; IC50 (KRAS G12S; KRAS G12S FRET data, IC50): 1000 to 10000 nM; IC50 (KRAS G12V; KRAS G12V FRET data IC50, KRAS G12V): 1000 to 10000 nM; IC50 (KRAS G13C; KRAS G13C FRET data IC50, KRAS G13C): 1000 to 10000 nM; IC50 (KRAS G13D; KRAS G13D FRET data IC50, KRAS G13D): > 10000 nM; IC50 (NRAS G12C; NRAS G12C FRET data IC50, NRAS G12C): 100 to 1000 nM
C=CC(=O)N1CC[C@H](C(=O)N(C)[C@H](C(=O)N[C@H]2Cc3cc(O)cc(c3)-c3ccc4c(c3)c(c(-c3cnccc3[C@H](C)OC)n4CC)CC(C)(C)COC(=O)[C@@H]3CCCN(N3)C2=O)C(C)C)C1 [Example A076]	10 to 100 nM	100 to 1000 nM	100 to 1000 nM		100 to 1000 nM	10 to 100 nM	10 to 100 nM	10 to 100 nM	10 to 100 nM	< 10 nM	IC50 (KRAS G12C; [10]): 10 to 100 nM and < 10 nM; IC50 (KRAS G13C; [11]): 10 to 100 nM
CCn1c(-c2cnccc2COC)c2c3cc(ccc31)-c1cc(O)cc(c1)C[C@H](NC(=O)[C@H](C(C)C)N(C)C(=O)[C@H]1CCN(C(=O)/C=C/CN(C)C)C1)C(=O)N1CCC[C@H](N1)C(=O)OCC(C)(C)C2 [Example A087]	10 to 100 nM	100 to 1000 nM	100 to 1000 nM		100 to 1000 nM	10 to 100 nM	10 to 100 nM		100 to 1000 nM		IC50 (KRAS G12C; [10]): 10 to 100 nM; IC50 (KRAS G13C; [11]): 100 to 1000 nM
CCn1c(-c2cccnc2[C@H](C)OC)c2c3cc(ccc31)-c1cc(O)cc(c1)C[C@H](NC(=O)[C@@H]1[C@H](C)CCN1C(C)=O)C(=O)N1CCC[C@H](N1)C(=O)OCC(C)(C)C2 [Example A144]	100 to 1000 nM	100 to 1000 nM	1000 to 10000 nM	100 to 1000 nM							
CCn1c(-c2cccnc2[C@H](C)OC)c2c3cc(ccc31)-c1cc(O)cc(c1)C[C@H](NC(=O)[C@H](C(C)C)N(C)C(=O)[C@H]1[C@@H]3CNC[C@@H]31)C(=O)N1CCC[C@H](N1)C(=O)OCC(C)(C)C2 [Example A163]	100 to 1000 nM	1000 to 10000 nM	1000 to 10000 nM	100 to 1000 nM							
C=CS(=O)(=O)N1CC[C@H](C(=O)N(C)[C@H](C(=O)N[C@H]2Cc3cccc(c3)-c3ccc4c(c3)c(c(-c3cncnc3)n4CC)CC(C)(C)COC(=O)[C@@H]3CCCN(N3)C2=O)C(C)C)C1 [Example A171]	> 10000 nM	> 10000 nM	> 10000 nM		> 10000 nM	> 10000 nM	> 10000 nM	> 10000 nM	> 10000 nM	1000 to 10000 nM	IC50 (NCI-H358 (K-Ras G12C); [9]): 100 to 1000 nM; IC50 (KRAS G12C; [10]): 1000 to 10000 nM; IC50 (KRAS G13C; [11]): 1000 to 10000 nM
CCn1c(-c2cccnc2[C@H](C)OC)c2c3cc(ccc31)-c1cc(O)cc(c1)C[C@H](NC(=O)C(C)Cc1ccncc1)C(=O)N1CCC[C@H](N1)C(=O)OCC(C)(C)C2 (stereo partly drawn) [Example A179]	100 to 1000 nM	1000 to 10000 nM	1000 to 10000 nM	100 to 1000 nM							
CCn1c(-c2cccnc2[C@H](C)OC)c2c3cc(ccc31)-c1cc(O)cc(c1)C[C@H](NC(=O)C13CCCC1C3(F)F)C(=O)N1CCC[C@H](N1)C(=O)OCC(C)(C)C2 (stereo partly drawn) [Example A180]	100 to 1000 nM	1000 to 10000 nM	1000 to 10000 nM	1000 to 10000 nM							
CCn1c(-c2cccnc2[C@H](C)OC)c2c3cc(ccc31)-c1cc(O)cc(c1)C[C@H](NC(=O)C1[C@H]3COC[C@@H]13)C(=O)N1CCC[C@H](N1)C(=O)OCC(C)(C)C2 (stereo partly drawn) [Example A253]	100 to 1000 nM	1000 to 10000 nM	1000 to 10000 nM	100 to 1000 nM	1000 to 10000 nM and > 10000 nM	1000 to 10000 nM and > 10000 nM	1000 to 10000 nM	1000 to 10000 nM and > 10000 nM	1000 to 10000 nM	1000 to 10000 nM	IC50 (KRAS G12C; [2]): 100 to 1000 nM and 1000 to 10000 nM; IC50 (KRAS G13C; [6]): 100 to 1000 nM and 1000 to 10000 nM
CCn1c(-c2cccnc2[C@H](C)OC)c2c3cc(ccc31)-c1cc(O)cc(c1)C[C@H](NC(=O)[C@H](C1CCCC1)N(C)C(=O)N1CCS(=O)(=NC)CC1)C(=O)N1CCC[C@H](N1)C(=O)OCC(C)(C)C2 [Example A426]	10 to 100 nM	100 to 1000 nM	100 to 1000 nM	10 to 100 nM	100 to 1000 nM	100 to 1000 nM	100 to 1000 nM	10 to 100 nM	10 to 100 nM	10 to 100 nM	IC50 (KRAS G12C; [2]): 10 to 100 nM; IC50 (KRAS G13C; [6]): 10 to 100 nM
C=CC(=O)N1CC2(CCN2C(=O)N(C)[C@H](C(=O)N[C@H]2Cc3nc(n(C)n3)-c3ccc4c(c3)c(c(-c3cccnc3[C@H](C)OC)n4CC)CC(C)(C)COC(=O)C3CCCN(N3)C2=O)C(C)C)C1 (stereo partly drawn) [Example A612]	10 to 100 nM	10 to 100 nM	10 to 100 nM		100 to 1000 nM	100 to 1000 nM	100 to 1000 nM	100 to 1000 nM	100 to 1000 nM	< 10 nM	IC50 (NCI-H358 (K-Ras G12C); [9]): 100 to 1000 nM; IC50 (KRAS G12C; [10]): 10 to 100 nM; IC50 (KRAS G13C; [11]): 100 to 1000 nM
